Reference: ChEMBL document CHEMBL4118214, “Structure activity relationships of anthranilic acid-based compounds on cellular and in vivo mitogen activated protein kinase-5 signaling pathways” (Bioorg Med Chem Lett, 2018)

Target: T1, Dual specificity mitogen-activated protein kinase kinase 5 (Homo sapiens, UniProt Q13163)
T1 sequence (Q13163 whole entry): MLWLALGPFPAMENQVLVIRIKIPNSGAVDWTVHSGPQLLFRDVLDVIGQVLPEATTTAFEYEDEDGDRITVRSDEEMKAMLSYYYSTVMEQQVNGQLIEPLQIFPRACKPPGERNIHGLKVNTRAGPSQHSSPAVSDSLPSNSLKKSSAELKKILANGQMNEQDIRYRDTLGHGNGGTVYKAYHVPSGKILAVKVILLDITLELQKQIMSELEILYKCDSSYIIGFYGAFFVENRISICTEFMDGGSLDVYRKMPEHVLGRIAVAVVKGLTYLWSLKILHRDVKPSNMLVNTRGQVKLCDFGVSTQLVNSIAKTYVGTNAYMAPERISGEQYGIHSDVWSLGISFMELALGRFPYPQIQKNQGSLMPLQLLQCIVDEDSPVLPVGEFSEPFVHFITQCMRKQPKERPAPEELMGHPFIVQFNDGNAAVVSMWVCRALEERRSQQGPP
Assay: Activation of MEK5 in EGF-stimulated human MDA-MB-231 cells assessed as increase in pERK5 levels preincubated for 30 mins followed by EGF stimulation measured after 15 mins by Western blot analysis relative to control
Format: cell-based
Design: concentration or dose not given beside the values
Settings: mda-mb-231, 0.25 h

Row | SMILES | Activity [%]
1 | O=C(c1ccc(F)c(F)c1Nc1ccc(I)cc1F)N1CCNCC1 | 20
2 | CN(c1ccc(I)cc1F)c1c(C(N)=O)ccc(F)c1F | 20
3 | CCN(CC)C(=O)c1ccc(F)c(F)c1Nc1ccc(I)cc1F | 20
4 | O=C(O)c1ccc(F)c(F)c1Nc1ccccc1F | 20
5 | O=C(O)c1ccc(F)c(F)c1Nc1ccccc1 | 20

Target: Dual specificity mitogen-activated protein kinase kinase; MEK1/2 (Homo sapiens, UniProt P36507+Q02750)
Assay: Activation of MEK1/2 in EGF-stimulated human MDA-MB-231 cells assessed as increase in pERK1/2 levels preincubated for 30 mins followed by EGF stimulation measured after 15 mins by Western blot analysis relative to control
Format: cell-based
Settings: mda-mb-231, 0.25 h

Row | SMILES | Activity [%]
6 | CN1CCN(C(=O)c2ccc(F)c(F)c2N(C)c2ccc(I)cc2F)CC1 | 20
7 | NC(=O)c1ccccc1Nc1ccccc1F | 20
8 | CN1CCN(C(=O)c2ccc(F)c(F)c2Nc2ccccc2)CC1 | 20

Tested on: MDA-MB-231
Assay: Antitumor activity against human MDA-MB-231 cells xenografted in SCID/Beige mouse assessed as tumor volume at 25 mg/kg, qd measured on day 30 (reference value: 49.48 +/- 3.44 mm3)
Format: functional
Settings: not given

Row | SMILES | Activity [mm3]
9 | NC(=O)c1ccc(F)c(F)c1Nc1ccc(I)cc1F | 29.1
